Results as given in patent US5171676A, “Method of introducing hydroxyl groups into artemisinin and its derivatives” (priority 1991, dated 1992).
≈ marks a conversion by molar mass, not a printed value. Like-named read-outs stand apart in the source and are kept apart here.

Tests used:
[1] = test system: Plasmodium falciparum, malarial strain D6; assay: Antimalarial activity in vitro, growth inhibition, strain D6; assay type: cell-based; details: for IC50: Plasmodium falciparum
Description: (§1) The antimalarial activity of various hydroxylated artemisinin derivatives obtained via the present method was determined by Drs. S. Anderson and W.K. Milhous at the Division of Experimental Therapeutics, Walter Reed Army Institute of Research, Washington, D.C.
(§2) The malarial strains employed in this survey include D6, W2, and GA3. In Table 2, below, the -pharmacological data are reported as IC-50, indicating the concentration, in ng per ml, of compound required to inhibit growth of the parasite at the 50% level.

[2] = test system: Plasmodium falciparum, malarial strain W2; assay: Antimalarial activity in vitro, growth inhibition, strain W2; assay type: cell-based; details: for IC50: Plasmodium falciparum
Description: as §1, §2

Plasmodium falciparum = assay: Antimalarial activity against the strains tested (summary of in vitro tests); assay type: cell-based; details: in words
Description: as §1, §2

[3] = test system: Plasmodium falciparum, malarial strain GA3; assay: Antimalarial activity in vitro, growth inhibition, strain GA3; assay type: cell-based; details: 50% inhibition of parasite growth; for IC50: Plasmodium falciparum
Description: as §1, §2

P. falciparum = details: cited from earlier work
Falciparum malaria = details: cited from earlier work; for reversal of chloroquine-resistance: with chloroquine, reports by Van Dyke et al.
[4] = strain D6, in vitro, 50% inhibition of parasite growth, read-out: IC-50
[5] = strain W2, in vitro, 50% inhibition of parasite growth, read-out: IC-50

SMILES | antimalarial activity (Plasmodium falciparum) | IC50 [1, 4] | IC50 [2, 5] | IC50 [3] | further results
CCOC1OC2OC3(C)CCC4C(C)C(O)CC(C1C)C24OO3 (stereo not drawn) [7β-Hydroxyarteether] | exhibit antimalarial activity against the strains tested | – | – | – | IC-50 ([1]; strain D6, in vitro, 50% inhibition of parasite growth): 12.6 ng/mL; IC-50 ([2]; strain W2, in vitro, 50% inhibition of parasite growth): 2.78 ng/mL; IC-50 [3]: 8.83 ng/mL
C[C@H]1C(OC(=O)Nc2ccccc2)O[C@@H]2O[C@@]3(C)CC[C@H]4[C@H](CO)CC[C@@H]1[C@@]24OO3 (stereo partly shown) [14-Hydroxy-N-phenylcarbamoyl dihydroartemisinin] | exhibit antimalarial activity against the strains tested | 2 ng/mL (≈ 4.77 nM) | – | – | –
CCOC1OC2OC3(C)CCC4C(CO)CCC(C1C)C24OO3 (stereo not shown) [14-Hydroxyarteether] | exhibit antimalarial activity against the strains tested | 12.6 ng/mL (≈ 38.4 nM) | 2.77 ng/mL (≈ 8.43 nM) | 8.18 ng/mL (≈ 24.9 nM) | –
CCOC1OC2OC3(C)CCC4C(C)CCC(C1C)C24OO3 (stereo not shown) [Arteether, ethyl ether of dihydroartemisinin] | – | 0.73 ng/mL (≈ 2.34 nM) | 0.28 ng/mL (≈ 0.896 nM) | 0.498 ng/mL (≈ 1.59 nM) | –
C[C@@H]1CC[C@H]2[C@@H](C)C(=O)O[C@@H]3O[C@@]4(C)CC[C@@H]1[C@]32OO4 [Artemisinin, artemisinin] | – | 0.97 ng/mL (≈ 3.44 nM) | 0.79 ng/mL (≈ 2.8 nM) | 1.58 ng/mL (≈ 5.6 nM) | resistance development (P. falciparum; P. falciparum): P. falciparum has not developed resistance; speed of action (P. falciparum): act rapidly; toxicity (P. falciparum): relatively non-toxic
CCN(CC)CCCC(C)Nc1ccnc2cc(Cl)ccc12 (stereo not shown) [Chloroquine, chloroquine] | – | – | – | – | IC50 ([1]; D6): 6.63 ng/mL (≈ 20.7 nM); IC50 ([2]; W2): 41.4 ng/mL (≈ 129 nM)
COc1ccc2cc1Oc1ccc(cc1)C[C@H]1c3cc(c(OC)cc3CCN1C)Oc1c(OC)c(OC)cc3c1[C@H](C2)N(C)CC3 [tetrandrine] | – | – | – | – | synergy with antimalarial drugs (Falciparum malaria; Van Dyke): act in a synergistic manner to greatly reduce the quantities of drugs required for activity; reversal of chloroquine-resistance (Falciparum malaria): reverse the chloroquine-resistance in Falciparum malaria
COc1ccc(CCN(C)CCCC(C#N)(c2ccc(OC)c(OC)c2)C(C)C)cc1OC (stereo not shown) [verapamil] | – | – | – | – | synergy with antimalarial drugs (Falciparum malaria): act in a synergistic manner to greatly reduce the quantities of drugs required for activity; reversal of chloroquine-resistance (Falciparum malaria): reverse the chloroquine-resistance in Falciparum malaria
